Where two headings read alike, the source gives them in different places.
Assays:
Staph. aureus A-9537 = assay: MIC, tube dilution, Staphylococcus aureus A9537; format: cell-based; settings: overnight 37° C., Nutrient Broth; for Minimum Inhibitory Concentration (M.I.C.): Staph. aureus A9537; for MIC: Staphylococcus aureus, A9537, Staph. aureus A9537, read-out: Minimum Inhibitory Concentration (M.I.C.)
From the text: (§1) Representative compounds of the present invention were subjected to in vitro antibiotic screening against a variety of microorganisms.

[1] = system: Providencia stuartii A21205; assay: MIC, tube dilution, Providencia stuartii (Pr. rettgeri) A21205; format: cell-based; settings: for MIC: Providencia stuartii
From the text: as §1

Ps. aeruginosa A-21213 = assay: MIC, tube dilution, Pseudomonas aeruginosa A21213; format: cell-based; settings: Pseudomonas aeruginosa A21213, overnight 37° C.; for MIC: read-out: Minimum Inhibitory Concentration (M.I.C.)
From the text: as §1

Str. pyogenes A-9604 = assay: MIC, tube dilution, Streptococcus pyogenes A9604; format: cell-based; settings: overnight 37° C., Nutrient Broth; for MIC: Streptococcus pyogenes, A9604, Str. pyogenes A9604, read-out: Minimum Inhibitory Concentration (M.I.C.)
From the text: as §1

Str. faecalis A-20688 = assay: MIC, tube dilution, Streptococcus faecalis A20688; format: cell-based; settings: overnight 37° C.; for MIC: Enterococcus faecalis, A20688, Str. faecalis A20688, read-out: Minimum Inhibitory Concentration (M.I.C.)
From the text: as §1

E. coli A-15119 = assay: MIC, tube dilution, Escherichia coli A15119; format: cell-based; settings: overnight 37° C.; for Minimum Inhibitory Concentration (M.I.C.): E. coli A15119; for MIC: Escherichia coli, A15119, E. coli A15119, read-out: Minimum Inhibitory Concentration (M.I.C.)
From the text: as §1

Pr. mirabilis A-9900 = assay: MIC, tube dilution, Proteus mirabilis A9900; format: cell-based; settings: overnight 37° C.; for MIC: Proteus mirabilis, A9900, Proteus mirabilis A9900, read-out: Minimum Inhibitory Concentration (M.I.C.)
From the text: as §1

Ps. aeruginosa A-9843A = assay: MIC, tube dilution, Pseudomonas aeruginosa A9843A; format: cell-based; settings: overnight 37° C.; for MIC: Pseudomonas aeruginosa, A9843A, read-out: Minimum Inhibitory Concentration (M.I.C.), Pseudomonas aeruginosa A9843A
From the text: as §1

Ent. cloacae A-9659 = assay: MIC, tube dilution, Enterobacter cloacae A9659; format: cell-based; settings: overnight 37° C.; for Minimum Inhibitory Concentration (M.I.C.): Enterobacter cloacae A9659; for MIC: Enterobacter cloacae, A9659, Enterobacter cloacae A9659, read-out: Minimum Inhibitory Concentration (M.I.C.)
From the text: as §1

Pr. morganii A-15153 = assay: MIC, tube dilution, Proteus morganii A15153; format: cell-based; settings: overnight 37° C.; for Minimum Inhibitory Concentration (M.I.C.): Proteus morganii A15153; for MIC: Morganella morganii, A15153, Proteus morganii A15153, read-out: Minimum Inhibitory Concentration (M.I.C.)
From the text: as §1

Pr. vulgaris A-9716 = assay: MIC, tube dilution, Proteus vulgaris / Proteus mirabilis A9716; format: cell-based, Proteus vulgaris (name changed to Proteus mirabilis); settings: overnight 37° C.; for MIC: Proteus vulgaris
From the text: as §1

Ent. cloacae A-9656 = assay: MIC, tube dilution, Enterobacter cloacae A9656; format: cell-based; settings: Enterobacter cloacae A9656, overnight 37° C.; for MIC: read-out: Minimum Inhibitory Concentration (M.I.C.)
From the text: as §1

[2] = system: Klebsiella species A20468; assay: MIC, tube dilution, Klebsiella species A20468; format: cell-based; settings: Klebsiella species (K. pneumoniae) A20468, overnight 37° C.; for MIC: read-out: Minimum Inhibitory Concentration (M.I.C.)
From the text: as §1

K. pneumoniae A-15130 = assay: MIC, tube dilution, Klebsiella pneumoniae A15130; format: cell-based; settings: overnight 37° C.; for Minimum Inhibitory Concentration (M.I.C.): K. pneumoniae A15130; for MIC: Klebsiella pneumoniae, A15130, K. pneumoniae A15130, read-out: Minimum Inhibitory Concentration (M.I.C.)
From the text: as §1

Str. pneumoniae A-9585 = assay: MIC, tube dilution, Streptococcus pneumoniae A9585; format: cell-based; settings: overnight 37° C., Nutrient Broth; for Minimum Inhibitory Concentration (M.I.C.): Str. pneumoniae A9585; for MIC: Streptococcus pneumoniae, A9585, Str. pneumoniae A9585, read-out: Minimum Inhibitory Concentration (M.I.C.)
From the text: as §1

[3] = system: Staph. aureus (Meth-Res) A-15097; assay: MIC, tube dilution, Staphylococcus aureus A15097 (Meth-Res); format: cell-based; settings: overnight 37° C.; for MIC: Staphylococcus aureus
From the text: as §1

Ser. marcescens A-20019 = assay: MIC, tube dilution, Serratia marcescens A20019; format: cell-based; settings: overnight 37° C.; for Minimum Inhibitory Concentration (M.I.C.): Serratia marcescens A20019; for MIC: Serratia marcescens, A20019, Serratia marcescens A20019, read-out: Minimum Inhibitory Concentration (M.I.C.)
From the text: as §1

[4] = system: Staph. aureus (Pen-Res) A-9606; assay: MIC, tube dilution, Staphylococcus aureus A9606 (Pen-Res); format: cell-based; settings: overnight 37° C.; for MIC: Staphylococcus aureus
From the text: as §1

E. coli A-20341-1 = assay: MIC, tube dilution, Escherichia coli A20341-1; format: cell-based
From the text: as §1

[5] = system: Staph. aureus A-9537 and 50% serum; assay: MIC, tube dilution, Staph. aureus A9537 + 50% serum; format: cell-based, Staphylococcus aureus; settings: overnight 37° C.; for MIC: Staphylococcus aureus, read-out: Minimum Inhibitory Concentration (M.I.C.)
From the text: as §1

[6] = Staph. aureus A15097 (Meth-Res)
[7] = A21205, read-out: Minimum Inhibitory Concentration (M.I.C.)
[8] = A9716, read-out: Minimum Inhibitory Concentration (M.I.C.), Proteus vulgaris / Proteus mirabilis A9716
[9] = read-out: Minimum Inhibitory Concentration (M.I.C.), Staph. aureus A9606 (Pen-Res)
[10] = Escherichia coli, A203411; E. coli A20341-1; overnight 37° C.; read-out: Minimum Inhibitory Concentration (M.I.C.)
[11] = read-out: Minimum Inhibitory Concentration (M.I.C.), Staph. aureus A15097 (Meth-Res)

Compound	Minimum Inhibitory Concentration (M.I.C.) (Staph. aureus A-9537)	Minimum Inhibitory Concentration (M.I.C.) (E. coli A-15119)	MIC (Staph. aureus A-9537)	MIC [1, 7]	MIC (Ps. aeruginosa A-21213)	MIC (Str. faecalis A-20688)	MIC (E. coli A-15119)	MIC (Pr. mirabilis A-9900)	MIC (Ps. aeruginosa A-9843A)	MIC (Ent. cloacae A-9659)	MIC (Pr. morganii A-15153)	MIC (Pr. vulgaris A-9716; [8])	MIC (Ent. cloacae A-9656)	MIC [2]	MIC (K. pneumoniae A-15130)	MIC (Str. pneumoniae A-9585)	MIC (Ser. marcescens A-20019)	MIC [4, 9]	MIC (E. coli A-20341-1; [10])	MIC [5]	further results
6-Acetoxymethyl-2-methylpenem-3-carboxylic Acid [Example 2]	8 µg/mL	32 µg/mL	–	–	–	–	–	–	–	–	–	–	–	–	–	–	–	–	–	–	Minimum Inhibitory Concentration (M.I.C.) ([1]; Providencia stuartii (Pr. rettgeri) A21205, overnight 37° C.): 32 µg/mL; Minimum Inhibitory Concentration (M.I.C.) (Ps. aeruginosa A-21213): > 125 µg/mL; Minimum Inhibitory Concentration (M.I.C.) (Str. pyogenes A-9604; Str. pyogenes A9604): 2 µg/mL; Minimum Inhibitory Concentration (M.I.C.) (Str. faecalis A-20688; Str. faecalis A20688): 63 µg/mL; Minimum Inhibitory Concentration (M.I.C.) (Pr. mirabilis A-9900; Proteus mirabilis A9900): 63 µg/mL; Minimum Inhibitory Concentration (M.I.C.) (Ps. aeruginosa A-9843A; Pseudomonas aeruginosa A9843A): > 125 µg/mL; Minimum Inhibitory Concentration (M.I.C.) (Ent. cloacae A-9659): 125 µg/mL; Minimum Inhibitory Concentration (M.I.C.) (Pr. morganii A-15153): 63 µg/mL; Minimum Inhibitory Concentration (M.I.C.) (Pr. vulgaris A-9716; Proteus vulgaris / Proteus mirabilis A9716): 63 µg/mL; Minimum Inhibitory Concentration (M.I.C.) (Ent. cloacae A-9656): > 125 µg/mL; Minimum Inhibitory Concentration (M.I.C.) [2]: > 125 µg/mL; Minimum Inhibitory Concentration (M.I.C.) (K. pneumoniae A-15130): 63 µg/mL; Minimum Inhibitory Concentration (M.I.C.) (Str. pneumoniae A-9585): 1 µg/mL; Minimum Inhibitory Concentration (M.I.C.) [3, 6]: 8 µg/mL; Minimum Inhibitory Concentration (M.I.C.) (Ser. marcescens A-20019): 125 µg/mL; Minimum Inhibitory Concentration (M.I.C.) ([4]; Staph. aureus A9606 (Pen-Res)): 4 µg/mL; Minimum Inhibitory Concentration (M.I.C.) (E. coli A-20341-1; E. coli A20341-1; overnight 37° C.): 32 µg/mL; Minimum Inhibitory Concentration (M.I.C.) [5]: > 63 µg/mL
CCC1C(=O)N2C(C(=O)[O-])=C(C)S[C@H]12.[Na+] (stereo partly drawn) [1 (cis), Sodium 6-Ethyl-2-methylpenem-3-carboxylate]	–	–	8 µg/mL	63 µg/mL	> 125 µg/mL	63 µg/mL	125 µg/mL	125 µg/mL	> 125 µg/mL	> 125 µg/mL	> 125 µg/mL	63 µg/mL	> 125 µg/mL	> 125 µg/mL	> 125 µg/mL	4 µg/mL	> 125 µg/mL	16 µg/mL	125 µg/mL	> 63 µg/mL	MIC (Str. pyogenes A-9604): 4 µg/mL; Minimum Inhibitory Concentration (M.I.C.) [3, 6]: 63 µg/mL
CC1=C(C(=O)O)N2C(=O)C(C(C)(C)O)C2S1 (stereo not drawn) [Example 3, Potassium 6-(2'-Hydroxyisopropyl)-2-methylpenem-3-carboxylate]	–	–	2 µg/mL	–	> 125 µg/mL	125 µg/mL	63 µg/mL	63 µg/mL	> 125 µg/mL	125 µg/mL	125 µg/mL	–	125 µg/mL	> 125 µg/mL	125 µg/mL	1 µg/mL	63 µg/mL	–	–	> 63 µg/mL	MIC ([1]; A21205, Providencia stuartii (Pr. rettgeri) A21205, overnight 37° C., read-out: Minimum Inhibitory Concentration (M.I.C.)): 63 µg/mL; MIC (Str. pyogenes A-9604): 4 µg/mL; MIC (Pr. vulgaris A-9716; A9716, Proteus vulgaris / Proteus mirabilis A9716, read-out: Minimum Inhibitory Concentration (M.I.C.)): 32 µg/mL; MIC ([3]; Staph. aureus A15097 (Meth-Res), read-out: Minimum Inhibitory Concentration (M.I.C.)): 32 µg/mL; MIC ([4]; Staph. aureus A9606 (Pen-Res), read-out: Minimum Inhibitory Concentration (M.I.C.)): 4 µg/mL; MIC (E. coli A-20341-1; Escherichia coli, A203411, E. coli A20341-1; overnight 37° C.; read-out: Minimum Inhibitory Concentration (M.I.C.)): 63 µg/mL
CC(=O)OCC1=C(C(=O)[O-])N2C(=O)C[C@H]2S1.[Na+] [Preparation 5, Sodium 2-(Acetoxymethyl)penem-3-carboxylate]	> 125 µg/mL	–	125 µg/mL	> 125 µg/mL	> 125 µg/mL	> 125 µg/mL	> 125 µg/mL	> 125 µg/mL	> 125 µg/mL	> 125 µg/mL	> 125 µg/mL	> 125 µg/mL	> 125 µg/mL	> 125 µg/mL	> 125 µg/mL	> 8 µg/mL	> 125 µg/mL	> 125 µg/mL	> 125 µg/mL	> 63 µg/mL	Minimum Inhibitory Concentration (M.I.C.) (Str. pneumoniae A-9585): 16 µg/mL; MIC [3, 11]: > 125 µg/mL
O=C([O-])C1=C(c2ccccc2)S[C@@H]2CC(=O)N12.[Na+] [Preparation 7, Sodium 2-Phenylpenem-3-carboxylate]	–	8 µg/mL	2 µg/mL	16 µg/mL	> 125 µg/mL	16 µg/mL	4 µg/mL	4 µg/mL	> 125 µg/mL	32 µg/mL	32 µg/mL	4 µg/mL	125 µg/mL	> 125 µg/mL	63 µg/mL	–	32 µg/mL	8 µg/mL	> 125 µg/mL	> 63 µg/mL	Minimum Inhibitory Concentration (M.I.C.) (Ent. cloacae A-9659): 63 µg/mL; Minimum Inhibitory Concentration (M.I.C.) (Pr. morganii A-15153): 63 µg/mL; Minimum Inhibitory Concentration (M.I.C.) (K. pneumoniae A-15130): 125 µg/mL; MIC [3, 11]: 63 µg/mL; Minimum Inhibitory Concentration (M.I.C.) (Ser. marcescens A-20019): 63 µg/mL; Minimum Inhibitory Concentration (M.I.C.) ([4]; Staph. aureus A9606 (Pen-Res)): 16 µg/mL
